Earlier results in paper PMC4891577, “Exploiting Phenylpropanoid Derivatives to Enhance the Nutraceutical Values of Cereals and Legumes” (Frontiers in Plant Science, 2016).

System: lipogenic proteins
Set-up: method as in Chavez-Santoscoy et al., 2014; Ramírez-Jiménez et al., 2015
Conditions: black bean flavonoid; ref Chavez-Santoscoy et al., 2014; Ramírez-Jiménez et al., 2015
For `O=c1c(O[C@@H]2O[C@H](CO)[C@@H](O)[C@H](O)[C@H]2O)c(-c2ccc(O)c(O)c2)oc2cc(O)cc(O)c12` [quercetin 3-glucoside], the “effect on expression of lipogenic proteins” value is given as “strong effects on down-regulation of expression of lipogenic proteins”.

System: Caco-2 cells
Set-up: method as in Hart et al., 2015
Conditions: polyphenols of black bean seed coats; ref Hart et al., 2015
For `O=c1c(O[C@@H]2O[C@H](CO)[C@@H](O)[C@H](O)[C@H]2O)c(-c2ccc(O)cc2)oc2cc(O)cc(O)c12` [kaempferol 3-glucoside], the “effect on Fe uptake” value is listed as “promote Fe uptake”.
In the case of `O=C(O)c1ccc(O)c(O)c1` [3,4-dihydroxybenzoic acid], the “effect on Fe uptake” value is listed as “promote Fe uptake”.
For `O=c1c(O)c(-c2cc(O)c(O)c(O)c2)oc2cc(O)cc(O)c12` [myricetin], the “effect on Fe uptake” value is given as “inhibit Fe uptake”.
For `O.Oc1cc(O)c2c(c1)O[C@H](c1ccc(O)c(O)c1)[C@@H](O)C2` [Catechin], the “effect on Fe uptake” value is given as “promote Fe uptake”.
For `O=c1c(OC2O[C@H](CO)[C@@H](O)[C@H](O)[C@H]2O)c(-c2cc(O)c(O)c(O)c2)oc2cc(O)cc(O)c12` (stereo partly drawn) [myricetin 3-glucoside], the “effect on Fe uptake” value is given as “inhibit Fe uptake”.
For `O=c1c(O)c(-c2ccc(O)cc2)oc2cc(O)cc(O)c12` [kaempferol], the “effect on Fe uptake” value is given as “promote Fe uptake”.
For `O=c1c(O)c(-c2ccc(O)c(O)c2)oc2cc(O)cc(O)c12` [quercetin], the “effect on Fe uptake” value is given as “inhibit Fe uptake”.
For `O=c1c(O[C@@H]2O[C@H](CO)[C@@H](O)[C@H](O)[C@H]2O)c(-c2ccc(O)c(O)c2)oc2cc(O)cc(O)c12` [quercetin 3-glucoside], the “effect on Fe uptake” value is listed as “inhibit Fe uptake”.
